Test results reported in BindingDB's records for PubMed 36126447 (Acharya & Bm Reddy College of Pharmacy, 2022).

Biological target: Programmed cell death 1 ligand 1 (Homo sapiens) (UniProt Q9NZQ7)
Assay: Inhibition of human PD-1/PDL1 protein-protein interaction by luminescence proximity homogeneous assay

Chain of Programmed cell death 1 ligand 1 (Homo sapiens) (Q9NZQ7 whole entry, looked up): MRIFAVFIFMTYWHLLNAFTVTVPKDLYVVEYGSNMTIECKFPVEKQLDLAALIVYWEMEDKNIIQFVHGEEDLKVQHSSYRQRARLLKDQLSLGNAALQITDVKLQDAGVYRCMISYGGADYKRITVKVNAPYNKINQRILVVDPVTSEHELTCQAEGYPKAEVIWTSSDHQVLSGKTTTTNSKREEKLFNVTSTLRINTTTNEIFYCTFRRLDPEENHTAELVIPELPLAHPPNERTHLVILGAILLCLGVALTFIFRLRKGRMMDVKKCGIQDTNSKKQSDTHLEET

Question: How did the IC50 turn out when `Cc1c(COc2ccc(C[C@H](N)C(=O)O)cc2Br)cccc1-c1ccccc1` was run?
Answer: 1500 nM
